The values below are quoted from earlier work in paper PMC2866172 (Journal of medicinal chemistry, 2010).

The data set deals with MTB enoyl-ACP reductase InhA. The conditions noted are these: on MTB enoyl-ACP reductase InhA; cited from earlier work.

Regarding `NC(=O)C1=CN([C@@H]2O[C@H](COP(=O)(O)OP(=O)(O)OC[C@H]3O[C@@H](n4cnc5c(N)ncnc54)[C@H](O)[C@@H]3O)[C@@H](O)[C@H]2O)C=C[C@@H]1C(=O)c1ccncc1` [INH-NAD adduct], the Residence time was 60 min.
